Data set [1] is described as follows: Cytotoxicity against MDCK cells assessed as cell viability after 48 hrs by MTT assay. The class given is cell-based, Canis lupus familiaris. Particulars: dog, read-out: CTD50.
Data set [2] in a line: Selectivity index, ratio of CTD50 for African green monkey Vero cells to EC50 for Human coxsackievirus B4 Powers. In kind it is toxicity, cell-based.
Data set [3] in a line: Selectivity index, ratio of CTD50 for MDCK cells to EC50 for Influenza A virus (A/Puerto Rico/8/1934(H1N1)). The class given is toxicity, cell-based. Particulars: dog.
For a further data set, the system named is Coxsackievirus B4. Kind of data set: Antiviral activity against Human coxsackievirus B4 Powers infected in African green monkey Vero cells assessed as decrease in virus titer after 72 hrs by MTT assay. Particulars: Enterovirus B. The class given is functional, organism-based.
Data set [4] can be described thus: Cytotoxicity against African green monkey Vero cells assessed as cell viability after 72 hrs by MTT assay. In kind it is cell-based. Particulars: chlorocebus sabaeus, read-out: CTD50.
A further data set deals with Influenza A virus. Kind of data set: Antiviral activity against Influenza A virus (A/Puerto Rico/8/1934(H1N1)) infected in MDCK cells assessed as decrease in virus titer after 48 hrs by MTT assay. The class given is functional, organism-based.

With `Nc1ncnc2c1ncn2[C@H]1C[C@H]2[C@H](CO)[C@@H]1C[C@@H]2Cl`, the CC50 at 48 h in data set [1] is greater than 1120 µM. Further, the selectivity ratio was 3 in data set [2] and greater than 150 in data set [3]. Besides, the EC50 in the data set with Coxsackievirus B4 was greater than 112 µM; in the data set with Influenza A virus, 8 µM. Also, the CC50 at 72 h in data set [4] amounted to 332 µM.

Take `CN(C)c1ncnc2c1ncn2[C@H]1C[C@H]2[C@H](CO)[C@@H]1C[C@@H]2Cl`: the CC50 at 48 h in data set [1] was determined as 929 µM. For the same compound, the selectivity ratio in data set [2] was 9; in data set [3], 8. Also, the EC50 was 28 µM with Coxsackievirus B4 and 112 µM in the data set on Influenza A virus. Also, the CC50 at 72 h in data set [4] amounted to 235 µM.

With `OC[C@H]1[C@@H]2C[C@H](n3cnc4c(NC5CC5)ncnc43)[C@H]1C[C@@H]2Cl`, the CC50 at 48 h in data set [1] worked out at 1130 µM. Besides, the selectivity ratio in data set [2] turned out to be 15; in data set [3] it was 151. The EC50 in the data set on Coxsackievirus B4 amounted to 17 µM; in the data set on Influenza A virus, 8 µM. Also, the CC50 at 72 h in data set [4] worked out at 247 µM.

Turning to `OC[C@H]1[C@@H]2C[C@H](n3cnc4c(NC5CCCC5)ncnc43)[C@H]1C[C@@H]2Cl`, the CC50 at 48 h in data set [1] turned out to be 529 µM. Also, the selectivity ratio in data set [2] amounted to 1; in data set [3], 36. Also, the EC50 was greater than 30 µM with Coxsackievirus B4 and 15 µM in the data set on Influenza A virus. Besides, the CC50 at 72 h in data set [4] came to 27 µM.

Turning to `CCN(CC)CCCNc1ncnc2c1ncn2[C@H]1C[C@H]2[C@H](CO)[C@@H]1C[C@@H]2Cl`, the CC50 at 48 h in data set [1] is 664 µM. The selectivity ratio in data set [2] is 2; in data set [3] it was less than 3. In addition, the EC50 in the data set on Coxsackievirus B4 was greater than 81 µM; in the data set with Influenza A virus, greater than 245 µM. The CC50 at 72 h in data set [4] was found to be 137 µM.

`CN1CCN(c2ncnc3c2ncn3[C@H]2C[C@H]3[C@H](CO)[C@@H]2C[C@@H]3Cl)CC1`: the CC50 at 48 h in data set [1] was determined as 1000 µM. The selectivity ratio is 3 in data set [2] and 39 in data set [3]. Further, the results for the EC50 in the data set with Coxsackievirus B4 and in the data set on Influenza A virus were greater than 87 µM and 25 µM, respectively. In addition, the CC50 at 72 h in data set [4] is 227 µM.

Regarding `OC[C@H]1[C@@H]2C[C@H](n3cnc4c(N5CCOCC5)ncnc43)[C@H]1C[C@@H]2Cl`, the CC50 at 48 h in data set [1] came out at 997 µM. Also, the selectivity ratio was 1 in data set [2] and 54 in data set [3]. Further, the EC50 in the data set on Coxsackievirus B4 is greater than 90 µM; in the data set on Influenza A virus, 19 µM. Moreover, the CC50 at 72 h in data set [4] amounted to 97 µM.

For the compound `OC[C@H]1[C@@H]2C[C@H](n3cnc4c(NC5CCCCC5)ncnc43)[C@H]1C[C@@H]2Cl`, in data set [1], the CC50 at 48 h is 528 µM. For the same compound, the selectivity ratio amounted to 1 in data set [2] and 6 in data set [3]. In addition, the values for the EC50 in the data set with Coxsackievirus B4 and in the data set with Influenza A virus were greater than 11 µM and 91 µM, respectively. The CC50 at 72 h in data set [4] worked out at 14 µM.

Consider `CCN(CC)CCNc1ncnc2c1ncn2[C@H]1C[C@H]2[C@H](CO)[C@@H]1C[C@@H]2Cl`, for which, in data set [1], the CC50 at 48 h was found to be 731 µM. For the same compound, the selectivity ratio came to 2 in data set [2] and 36 in data set [3]. Moreover, the EC50 is greater than 84 µM in the data set with Coxsackievirus B4 and 20 µM in the data set on Influenza A virus. In data set [4], the CC50 at 72 h was determined as 175 µM.

Turning to `OC[C@H]1[C@@H]2C[C@H](n3cnc4c(NCCc5ccc(O)cc5)ncnc43)[C@H]1C[C@@H]2Cl`, in data set [1], the CC50 at 48 h is greater than 795 µM. The selectivity ratio in data set [2] was 6; in data set [3], greater than 16. For the same compound, the results for the EC50 with Coxsackievirus B4 and with Influenza A virus were 18 µM and 48 µM, respectively. In addition, the CC50 at 72 h in data set [4] worked out at 108 µM.

Take `OC[C@@H](Cc1ccccc1)Nc1ncnc2c1ncn2[C@H]1C[C@H]2[C@H](CO)[C@@H]1C[C@@H]2Cl`: the CC50 at 48 h in data set [1] is 410 µM. The values for the selectivity ratio in data set [2] and in data set [3] were 141 and 3, respectively. Further, the EC50 is 1 µM with Coxsackievirus B4 and 131 µM with Influenza A virus. Also, in data set [4], the CC50 at 72 h amounted to 197 µM.

Take `OC[C@H]1[C@@H]2C[C@H](n3cnc4c(NCc5cccnc5)ncnc43)[C@H]1C[C@@H]2Cl`: in data set [1], the CC50 at 48 h stood at 554 µM. For the same compound, the values for the selectivity ratio in data set [2] and in data set [3] were 2 and 5, respectively. For the same compound, the EC50 is greater than 86 µM with Coxsackievirus B4 and 122 µM in the data set on Influenza A virus. In addition, in data set [4], the CC50 at 72 h is 204 µM.

Take `OC[C@H]1[C@@H]2C[C@H](n3cnc4c(NCc5ccncc5)ncnc43)[C@H]1C[C@@H]2Cl`: in data set [1], the CC50 at 48 h amounted to 712 µM. In addition, the selectivity ratio amounted to 2 in data set [2] and 3 in data set [3]. The EC50 was greater than 84 µM in the data set on Coxsackievirus B4 and 250 µM in the data set on Influenza A virus. Moreover, the CC50 at 72 h in data set [4] amounted to 166 µM.

Take `CN1CCN(Nc2ncnc3c2ncn3[C@H]2C[C@H]3[C@H](CO)[C@@H]2C[C@@H]3Cl)CC1`: the CC50 at 48 h in data set [1] stood at 840 µM. For the same compound, the figures for the selectivity ratio in data set [2] and in data set [3] were 1 and 73, respectively. Moreover, the EC50 in the data set with Coxsackievirus B4 is greater than 255 µM; with Influenza A virus, 12 µM. In addition, the CC50 at 72 h in data set [4] was 255 µM.

Turning to `CCN(CC)c1ncnc2c1ncn2[C@H]1C[C@H]2[C@H](CO)[C@@H]1C[C@@H]2Cl`, the CC50 at 48 h in data set [1] stood at 385 µM. The results for the selectivity ratio in data set [2] and in data set [3] were 2 and 18, respectively. Further, the EC50 in the data set on Coxsackievirus B4 was greater than 94 µM; with Influenza A virus, 22 µM. For the same compound, the CC50 at 72 h in data set [4] worked out at 182 µM.

`OC[C@@H]1[C@@H]2C[C@H](Cl)[C@H]1C[C@@H]2Nc1ncnc2c1ncn2[C@H]1C[C@H]2[C@H](CO)[C@@H]1C[C@@H]2Cl`: in data set [1], the CC50 at 48 h was greater than 704 µM. Also, the selectivity ratio in data set [2] is 3; in data set [3] it was greater than 73. The EC50 in the data set with Coxsackievirus B4 is 61 µM; in the data set on Influenza A virus, 10 µM. Moreover, the CC50 at 72 h in data set [4] was found to be 213 µM.

In the case of `Cc1cn([C@H]2C[C@H]3[C@H](CO)[C@@H]2C[C@@H]3Cl)c(=O)[nH]c1=O`, the CC50 at 48 h in data set [1] is greater than 1160 µM. The selectivity ratio in data set [2] was 1; in data set [3], greater than 3. Moreover, the EC50 was greater than 352 µM in the data set on Coxsackievirus B4 and 352 µM with Influenza A virus. Also, in data set [4], the CC50 at 72 h came to 57 µM.

Regarding `O=c1ccn([C@H]2C[C@H]3[C@H](CO)[C@@H]2C[C@@H]3Cl)c(=O)[nH]1`, the CC50 at 48 h in data set [1] was greater than 1210 µM. For the same compound, the selectivity ratio in data set [2] was 1; in data set [3], greater than 19. Moreover, the EC50 is greater than 367 µM with Coxsackievirus B4 and 64 µM in the data set on Influenza A virus. In addition, the CC50 at 72 h in data set [4] came out at 172 µM.

Source of the values: ChEMBL document CHEMBL3611975, “New carbocyclic N(6)-substituted adenine and pyrimidine nucleoside analogues with a bicyclo[2.2.1]heptane fragment as sugar moiety; synthesis, antiviral, anticancer activity and X-ray crystallography” (Bioorg Med Chem, 2015).
